According to BindingDB's records for doi:10.1021/acs.jmedchem.3c01371 (University of Santiago De Compostela, 2023):

Molecular target: T1, Vitamin D3 receptor (Homo sapiens, UniProt P11473)
T1 sequence (P11473 whole entry): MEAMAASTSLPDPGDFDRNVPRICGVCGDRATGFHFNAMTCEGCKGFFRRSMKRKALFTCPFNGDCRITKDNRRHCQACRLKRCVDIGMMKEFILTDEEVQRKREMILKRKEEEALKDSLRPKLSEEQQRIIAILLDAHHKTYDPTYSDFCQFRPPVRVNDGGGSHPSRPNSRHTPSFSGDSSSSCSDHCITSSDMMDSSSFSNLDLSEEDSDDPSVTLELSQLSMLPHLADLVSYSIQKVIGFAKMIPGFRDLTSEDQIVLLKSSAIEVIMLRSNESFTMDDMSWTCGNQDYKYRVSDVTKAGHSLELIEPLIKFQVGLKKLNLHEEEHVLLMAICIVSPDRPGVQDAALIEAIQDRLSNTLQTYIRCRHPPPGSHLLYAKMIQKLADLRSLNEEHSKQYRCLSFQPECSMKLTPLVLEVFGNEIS
Experiment: Binding affinity to full length human VDR by Competitive binding assay

- IC50: 4.6 nM
Structure (SMILES): C=C1/C(=C\C=C(/C)c2cccc(CCC#CCC(O)(C(F)(F)F)C(F)(F)F)c2)C[C@@H](O)C[C@@H]1O
